According to US8399452B2, “Dibenzo[b,f][1,4]oxazepin-11-yl-N-hydroxybenzamides as HDAC inhibitors” (Methylgene Inc., priority 2006, dated 2013):

target: histone deacetylase (HDAC Enzyme); test: Inhibition of Histone Deacetylase Enzymatic Activity (Boc-Lys(Ac)-AMC, Fluor-de-Lys developer); type: biochemical; details: Table 9; read-out: HDAC Inhibition (IC50 μM) HDAC Enzyme
Protocol: The following protocol is used to assay the compounds of the invention.
The mixture is pre-incubated for 5 minutes at room temperature. The reaction is started by bringing the temperature to 37° C. and adding 16 μl substrate. Total reaction volume is 50 μl.
In the Tables 8, 9 and 10, A≦[…]<B≦0.1 μM; 0.1 μM<C≦1 μM; and 1 μM<D≦10 μM.

First: O=C(NO)c1cnc(N2CC3CC(CN(c4cc(C(F)(F)F)ccn4)C3)C2)nc1 [N-hydroxy-2-(7-(4-(trifluoromethyl)pyridin-2-yl)-3,7-diazabicyclo[3.3.1]nonan-3-yl)pyrimidine-5-carboxamide]
Second: O=C(NO)c1cnc(N2C[C@H]3C[C@@H]2CN3c2cc(C(F)(F)F)ccn2)nc1 [N-hydroxy-2-((1R,4R)-5-(4-(trifluoromethyl)pyridin-2-yl)-2,5-diazabicyclo[2.2.1]heptan-2-yl)pyrimidine-5-carboxamide]
The IC50 of the first is higher: 0.1 to 1 µM for the first, less than 0.05 µM for the second.

For Cc1cccc(N2C[C@H]3C[C@@H]2CN3c2ncc(C(=O)NO)cn2)c1 [N-hydroxy-2-((1R,4R)-5-m-tolyl-2,5-diazabicyclo[2.2.1]heptan-2-yl)pyrimidine-5-carboxamide], the IC50 was 0.05 to 0.1 µM.

same assay, conditions: Table 10; read-out: HDAC Inhibition (IC50 μM) HDAC Enzyme

First: O=C(CCCCN1c2ccccc2C=Cc2ccccc21)NO [(Z)-5-(5H-dibenzo[b,f]azepin-5-yl)-N-hydroxypentanamide]
Second: O=C(CCCCCN1c2ccccc2C=Cc2ccccc21)NO [(Z)-6-(5H-dibenzo[b,f]azepin-5-yl)-N-hydroxyhexanamide]
The IC50 of the first is higher: 0.1 to 1 µM for the first, less than 0.05 µM for the second. The second is the more potent here.

Compared with O=C(CCCCCC(=O)N1c2ccccc2C=Cc2ccccc21)NO [(Z)-7-(5H-dibenzo[b,f]azepin-5-yl)-N-hydroxy-7-oxoheptanamide], O=C(CCCCCCC(=O)N1c2ccccc2C=Cc2ccccc21)NO [(Z)-8-(5H-dibenzo[b,f]azepin-5-yl)-N-hydroxy-8-oxooctanamide] is higher in IC50: less than 0.05 µM for the first, 0.1 to 1 µM for the second. The first is the more potent here.

Compared with O=C(CCCCCCN1c2ccccc2C=Cc2ccccc21)NO [(Z)-7-(5H-dibenzo[b,f]azepin-5-yl)-N-hydroxyheptanamide], O=C(CCCCCCCN1C(=O)CN=C(c2ccccc2)c2ccccc21)NO [(Z)-N-hydroxy-8-(2-oxo-5-phenyl-2,3-dihydro-1H-benzo[e][1,4]diazepin-1-yl)octanamide] is higher in IC50: less than 0.05 µM for the first, 0.1 to 1 µM for the second. The first is the more potent here.

CN1C(=O)CN=C(c2ccccc2)c2ccc(CCC(=O)NO)cc21 [(Z)-N-hydroxy-3-(1-methyl-2-oxo-5-phenyl-2,3-dihydro-1H-benzo[e][1,4]diazepin-8-yl)propanamide] and O=C(CCCCCN1C(=O)CN=C(c2ccccc2)c2ccccc21)NO [(Z)-N-hydroxy-6-(2-oxo-5-phenyl-2,3-dihydro-1H-benzo[e][1,4]diazepin-1-yl)hexanamide] fall in the same range of IC50: 0.1 to 1 µM for the first, 0.1 to 1 µM for the second.

First: CN1C(=O)CN=C(c2ccc(C(=O)NO)cc2)c2ccccc21 [(Z)-N-hydroxy-4-(1-methyl-2-oxo-2,3-dihydro-1H-benzo[e][1,4]diazepin-5-yl)benzamide]
Second: O=C(NO)c1cnc(N2CCn3c(nnc3-c3ccccc3)C2)nc1 [N-hydroxy-2-(3-phenyl-5,6-dihydro-[1,2,4]triazolo[4,3-a]pyrazin-7(8H)-yl)pyrimidine-5-carboxamide]
The IC50 of the first is higher: 0.1 to 1 µM for the first, less than 0.05 µM for the second.

For O=C(NO)c1cnc(N2CCn3c(nnc3C(F)(F)F)C2)nc1 [N-hydroxy-2-(3-(trifluoromethyl)-5,6-dihydro-[1,2,4]triazolo[4,3-a]pyrazin-7(8H)-yl)pyrimidine-5-carboxamide], the IC50 was 0.05 to 0.1 µM.

same assay, conditions: read-out: HDAC Inhibtion (IC50 μM) HDAC Enzyme

First: O=C(NO)c1ccc(C2=Nc3ccccc3Sc3ccccc32)cc1 [(Z)-4-(dibenzo[b,f][1,4]thiazepin-11-yl)-N-hydroxybenzamide]
Second: CC(C)N1c2ccccc2N=C(c2ccc(C(=O)NO)cc2)c2ccccc21 [(Z)-N-hydroxy-4-(5-isopropyl-5H-dibenzo[b,e][1,4]diazepin-11-yl)benzamide]
The IC50 of the first is higher: 0.1 to 1 µM for the first, less than 0.05 µM for the second.

First: O=C(NO)c1ccc(C2=Nc3ccccc3Oc3c[n+]([O-])ccc32)cc1 [(Z)-5-(4-(hydroxycarbamoyl)phenyl)benzo[b]pyrido[4,3-f][1,4]oxazepine 2-oxide]
Second: Cc1ccc2c(c1)Oc1ccccc1N=C2c1ccc(C(=O)NO)cc1 [(Z)-N-hydroxy-4-(3-methyldibenzo[b,f][1,4]oxazepin-11-yl)benzamide]
The IC50 of the first is higher: 0.1 to 1 µM for the first, less than 0.05 µM for the second. The second is the more potent here.

First: COc1cccc2c1C(c1ccc(C(=O)NO)cc1)=Nc1ccccc1O2 [(Z)-N-hydroxy-4-(1-methoxydibenzo[b,f][1,4]oxazepin-11-yl)benzamide]
Second: COc1cccc2c1Oc1ccccc1N=C2c1ccc(C(=O)NO)cc1 [(Z)-N-hydroxy-4-(4-methoxydibenzo[b,f][1,4]oxazepin-11-yl)benzamide]
The IC50 of the first is higher: 0.1 to 1 µM for the first, 0.05 to 0.1 µM for the second.

First: O=C(NO)c1ccc(C2=Nc3ccc(C(F)(F)F)nc3Oc3ccccc32)cc1 [(Z)-N-hydroxy-4-(2-(trifluoromethyl)benzo[f]pyrido[2,3-b][1,4]oxazepin-6-yl)benzamide]
Second: O=C(NO)c1ccc(C2=Nc3ccc(C(F)(F)F)cc3Oc3ccccc32)cc1 [(Z)-N-hydroxy-4-(7-(trifluoromethyl)dibenzo[b,f][1,4]oxazepin-11-yl)benzamide]
The IC50 of the first is lower: 0.05 to 0.1 µM for the first, 0.1 to 1 µM for the second.

COc1ccc2c(c1)C(c1ccc(C(=O)NO)cc1)=Nc1ccccc1O2 [(Z)-N-hydroxy-4-(2-methoxydibenzo[b,f][1,4]oxazepin-11-yl)benzamide] and COc1ccc2c(c1)Oc1ccccc1N=C2c1ccc(C(=O)NO)cc1 [(Z)-N-hydroxy-4-(3-methoxydibenzo[b,f][1,4]oxazepin-11-yl)benzamide] fall in the same range of IC50: 0.1 to 1 µM for the first, 0.1 to 1 µM for the second.

First: O=C(NO)c1ccc(C2=Nc3ccccc3Oc3cc(C(F)(F)F)ccc32)cc1 [(Z)-N-hydroxy-4-(3-(trifluoromethyl)dibenzo[b,f][1,4]oxazepin-11-yl)benzamide]
Second: O=C(NO)c1ccc(C2=Nc3cc(C(F)(F)F)ccc3Oc3ccccc32)cc1 [(Z)-N-hydroxy-4-(8-(trifluoromethyl)dibenzo[b,f][1,4]oxazepin-11-yl)benzamide]
The IC50 of the first is lower: 0.05 to 0.1 µM for the first, 0.1 to 1 µM for the second.

First: O=C(NO)c1ccc(C2=Nc3ccccc3Oc3cc(N4CCOCC4)ccc32)cc1 [(Z)-N-hydroxy-4-(3-morpholinodibenzo[b,f][1,4]oxazepin-11-yl)benzamide]
Second: O=C(NO)c1ccc(C2=Nc3ccccc3Oc3c(OCCN4CCOCC4)cccc32)cc1 [(Z)-N-hydroxy-4-(4-(2-morpholinoethoxy)dibenzo[b,f][1,4]oxazepin-11-yl)benzamide]
The IC50 of the first is higher: 0.1 to 1 µM for the first, less than 0.05 µM for the second. The second is the more potent here.

First: COCCOc1cccc2c1Oc1ccccc1N=C2c1ccc(C(=O)NO)cc1 [(Z)-N-hydroxy-4-(4-(2-methoxyethoxy)dibenzo[b,f][1,4]oxazepin-11-yl)benzamide]
Second: Cc1cccc2c1Oc1ccccc1N=C2c1ccc(C(=O)NO)cc1 [(Z)-N-hydroxy-4-(4-methyldibenzo[b,f][1,4]oxazepin-11-yl)benzamide]
The IC50 of the first is lower: less than 0.05 µM for the first, 0.05 to 0.1 µM for the second. The first is the more potent here.

C[S+]([O-])c1cccc2c1Oc1ccccc1N=C2c1ccc(C(=O)NO)cc1 (stereo not shown) [(Z)-N-hydroxy-4-(4-(methylsulfinyl)dibenzo[b,f][1,4]oxazepin-11-yl)benzamide] and O=C(NO)c1ccc(C2=Nc3ccccc3Oc3c(O)cccc32)cc1 [(Z)-N-hydroxy-4-(4-hydroxydibenzo[b,f][1,4]oxazepin-11-yl)benzamide] fall in the same range of IC50: 0.05 to 0.1 µM for the first, 0.05 to 0.1 µM for the second.

CS(=O)(=O)c1cccc2c1Oc1ccccc1N=C2c1ccc(C(=O)NO)cc1 [(Z)-N-hydroxy-4-(4-(methylsulfonyl)dibenzo[b,f][1,4]oxazepin-11-yl)benzamide] and CSc1cccc2c1Oc1ccccc1N=C2c1ccc(C(=O)NO)cc1 [(Z)-N-hydroxy-4-(4-(methylthio)dibenzo[b,f][1,4]oxazepin-11-yl)benzamide] cannot be ordered by IC50: less than 0.05 µM for the first, less than 0.05 µM for the second.

First: O=C(NO)c1ccc(C2=Nc3ccccc3Oc3c(OC(F)(F)F)cccc32)cc1 [(Z)-N-hydroxy-4-(4-(trifluoromethoxy)dibenzo[b,f][1,4]oxazepin-11-yl)benzamide]
Second: O=C(NO)c1ccc(C2=Nc3ccccc3Oc3c2cccc3C(F)(F)F)cc1 [(Z)-N-hydroxy-4-(4-(trifluoromethyl)dibenzo[b,f][1,4]oxazepin-11-yl)benzamide]
The IC50 of the first is higher: 0.1 to 1 µM for the first, less than 0.05 µM for the second.

Compared with COc1cccc2c1Oc1ccc(C(F)(F)F)cc1N=C2c1ccc(C(=O)NO)cc1 [(Z)-N-hydroxy-4-(4-methoxy-8-(trifluoromethyl)dibenzo[b,f][1,4]oxazepin-11-yl)benzamide], Cc1ccc2c(c1)N=C(c1ccc(C(=O)NO)cc1)c1ccccc1O2 [(Z)-N-hydroxy-4-(8-methyldibenzo[b,f][1,4]oxazepin-11-yl)benzamide] is lower in IC50: 0.1 to 1 µM for the first, 0.05 to 0.1 µM for the second.

CCCc1cccc2c1Oc1ccccc1N=C2c1ccc(C(=O)NO)cc1 [(Z)-N-hydroxy-4-(4-propyldibenzo[b,f][1,4]oxazepin-11-yl)benzamide] and Cc1cccc2c1Oc1ccccc1C(c1ccc(C(=O)NO)cc1)=N2 [(Z)-N-hydroxy-4-(6-methyldibenzo[b,f][1,4]oxazepin-11-yl)benzamide] fall in the same range of IC50: 0.1 to 1 µM for the first, 0.1 to 1 µM for the second.

COCCN1c2ccccc2N=C(c2ccc(C(=O)NO)cc2)c2ccccc21 [(Z)-N-hydroxy-4-(5-(2-methoxyethyl)-5H-dibenzo[b,e][1,4]diazepin-11-yl)benzamide] and O=C(NO)c1ccc(C2=Nc3ccccc3N(CCN3CCOCC3)c3ccccc32)cc1 [(Z)-N-hydroxy-4-(5-(2-morpholinoethyl)-5H-dibenzo[b,e][1,4]diazepin-11-yl)benzamide] fall in the same range of IC50: 0.1 to 1 µM for the first, 0.1 to 1 µM for the second.

Compared with O=C(NO)c1ccc(C2=Nc3ccccc3N(CCN3CCOCC3)c3ncccc32)cc1 [(Z)-N-hydroxy-4-(11-(2-morpholinoethyl)-11H-benzo[b]pyrido[2,3-e][1,4]diazepin-5-yl)benzamide], O=C(NO)c1ccc(C2=Nc3ccccc3N(CCCN3CCOCC3)c3ncccc32)cc1 [(Z)-N-hydroxy-4-(11-(3-morpholinopropyl)-11H-benzo[b]pyrido[2,3-e][1,4]diazepin-5-yl)benzamide] is higher in IC50: 0.05 to 0.1 µM for the first, 0.1 to 1 µM for the second. The first is the more potent here.

First: CC(C)N1c2ccccc2N=C(c2ccc(C(=O)NO)cc2)c2cccnc21 [(Z)-N-hydroxy-4-(11-isopropyl-11H-benzo[b]pyrido[2,3-e][1,4]diazepin-5-yl)benzamide]
Second: O=C(NO)c1ccc2c(c1)N=C(c1ccncc1)c1ccccc1O2 [(Z)-N-hydroxy-11-(pyridin-4-yl)dibenzo[b,f][1,4]oxazepine-8-carboxamide]
The IC50 of the first is lower: less than 0.05 µM for the first, 0.1 to 1 µM for the second.
